# Data published in patent publication US9220719B2, “Single dose oral formulations and methods for treatment of cats with ectoparasiticidal spinosad” (priority 2012, dated 2015).
# Experiment: Pharmacokinetics of spinosad API capsules and spinosad tablets after oral administration to cats (Example 2)
# Settings: cats, oral; for mean normalized AUC0-∞ / mean normalized Cmax: plasma, normalized to dose
# Procedure: The plasma concentrations and resulting pharmacokinetics of spinosad tablets when administered orally to adult cats in the fed or fasted state can be evaluated. Twenty four cats (12 male and 12 female) can be dosed with approximately 80 mg/kg spinosad, as either API in gelatin capsules or as spinosad formulated chewable tablets. Serial blood samples can be collected through 672 hours (28 days) after dose administration. […] Samples can be immediately mixed by inversion several times and stored on ice until centrifuged. The plasma can be collected, split into two approximately equal aliquots and stored frozen at approximately −70° C. until shipped for analysis, and/or analyzed by a validated LC/MS/MS assay.
# [1] = group 1: 80 mg/kg spinosad API in gel capsules, fed
# [2] = group 2: 80 mg/kg spinosad tablets, fed
# [3] = group 3: 80 mg/kg spinosad tablets, fasted
substance,measurement,setting,value
spinosyn A,mean Tmax,[1],12 ± 5.2 h
same,mean elimination half-life (t1/2),[1],327 ± 84.3 h
same,mean normalized AUC0-∞,[1],"4,460±1410 hr*ng*kg/mg*mL"
same,mean normalized Cmax,[1],60 ± 18 ng·kg/mg/mL
same,mean Tmax,[2],10 ± 3.0 h
same,mean elimination half-life (t1/2),[2],277 ± 75.5 h
same,mean normalized AUC0-∞,[2],"4,480±1180 hr*ng*kg/mg*mL"
same,mean normalized Cmax,[2],46 ± 14 ng·kg/mg/mL
same,mean Tmax,[3],6.0 ± 3.7 h
same,mean elimination half-life (t1/2),[3],193 ± 60.5 h
same,mean normalized AUC0-∞,[3],781 ± 406 ng·kg·h/mg/mL
same,mean normalized Cmax,[3],11 ± 6.6 ng·kg/mg/mL
